Numbers after ± are expanded uncertainties.
What was measured:
[1] = xn = mol fraction of the nth substance listed; conditions: Liquid
[2] = Liquid; for Critical pressure: Direct measurement; for Critical temperature: Visual observation in an unstirred cell

**Q.** With FC(F)C(F)(F)F [pentafluoroethane] + COC(F)(F)C(F)(F)F as the compound, how does the Critical density ([1]; x2 = 0) read?
**A.** 560 ± 13 kg/m3

**Q.** Which Critical density ([1]; x2 = 0) does the source give for FCC(F)(F)F [1,1,1,2-tetrafluoroethane] + COC(F)(F)C(F)(F)F here?
**A.** 508 ± 12 kg/m3

**Q.** What does the source list for FC(F)C(F)C(F)(F)F (stereo not drawn) [1,1,1,2,3,3-hexafluoropropane] + COC(F)(F)C(F)(F)F?
**A.** Critical density ([1]; x2 = 0): 562 ± 13 kg/m3; Critical density ([1]; x2 = 0.1546): 550 ± 13 kg/m3; Critical density ([1]; x2 = 0.3124): 535 ± 12 kg/m3; Critical density ([1]; x2 = 0.4485): 534 ± 12 kg/m3; Critical density ([1]; x2 = 0.6388): 520 ± 12 kg/m3; Critical density ([1]; x2 = 0.7888): 506 ± 12 kg/m3

**Q.** What does the source list for COC(F)(F)C(F)(F)F [methyl pentafluoroethyl ether] + FCC(F)(F)F?
**A.** Critical density ([1]; x1 = 0.1167): 508 ± 12 kg/m3; Critical density ([1]; x1 = 0.2446): 512 ± 12 kg/m3; Critical density ([1]; x1 = 0.4299): 509 ± 12 kg/m3; Critical density ([1]; x1 = 0.5886): 506 ± 12 kg/m3; Critical density ([1]; x1 = 0.7674): 503 ± 12 kg/m3; Critical density ([1]; x1 = 1): 491 ± 11 kg/m3

**Q.** Which Critical density [2] does the source give for FCC(F)(F)F [1,1,1,2-tetrafluoroethane] here?
**A.** 508 ± 12 kg/m3

**Q.** What about the Critical pressure [2] of the same compound?
**A.** 4053 ± 12 kPa

**Q.** What about the Critical temperature [2] of the same compound?
**A.** 374.13 ± 0.16 K

**Q.** For FC(F)C(F)(F)F [pentafluoroethane], which Critical density [2] is on record?
**A.** 560 ± 13 kg/m3

**Q.** And the Critical pressure [2]?
**A.** 3617 ± 12 kPa

**Q.** What about the Critical temperature [2] of the same compound?
**A.** 339.2 ± 0.16 K

**Q.** With COC(F)(F)C(F)(F)F [methyl pentafluoroethyl ether] + FC(C(F)(F)F)C(F)(F)F as the compound, how does the Critical density ([1]; x1 = 0.1823) read?
**A.** 584 ± 14 kg/m3

**Q.** And the Critical density ([1]; x1 = 0.306)?
**A.** 558 ± 13 kg/m3

**Q.** What about the Critical density ([1]; x1 = 0.4769) of the same compound?
**A.** 545 ± 13 kg/m3

**Q.** What about the Critical density ([1]; x1 = 0.6944) of the same compound?
**A.** 531 ± 12 kg/m3

**Q.** What about the Critical density ([1]; x1 = 0.8132) of the same compound?
**A.** 519 ± 12 kg/m3

**Q.** And the Critical density ([1]; x1 = 1)?
**A.** 491 ± 11 kg/m3

**Q.** For COC(F)(F)C(F)(F)F [methyl pentafluoroethyl ether], which Critical density [2] is on record?
**A.** 491 ± 11 kg/m3

**Q.** What about the Critical pressure [2] of the same compound?
**A.** 2885 ± 12 kPa

**Q.** And the Critical temperature [2]?
**A.** 406.82 ± 0.16 K

**Q.** What does the source list for FC(F)C(F)C(F)(F)F (stereo not drawn) [1,1,1,2,3,3-hexafluoropropane]?
**A.** Critical density [2]: 562 ± 13 kg/m3; Critical pressure [2]: 3416 ± 12 kPa; Critical temperature [2]: 412.41 ± 0.16 K

**Q.** With COC(F)(F)C(F)(F)F [methyl pentafluoroethyl ether] + FC(F)C(F)C(F)(F)F as the compound, how does the Critical density ([1]; x1 = 1) read?
**A.** 491 ± 11 kg/m3

**Q.** With FC(C(F)(F)F)C(F)(F)F [1,1,1,2,3,3,3-heptafluoropropane] as the compound, how does the Critical density [2] read?
**A.** 598 ± 14 kg/m3

**Q.** What about the Critical pressure [2] of the same compound?
**A.** 2930 ± 12 kPa

**Q.** What about the Critical temperature [2] of the same compound?
**A.** 375 ± 0.16 K

**Q.** Which Critical density ([1]; x1 = 0.1408) does the source give for COC(F)(F)C(F)(F)F [methyl pentafluoroethyl ether] + FC(F)C(F)(F)F here?
**A.** 551 ± 13 kg/m3

**Q.** And the Critical density ([1]; x1 = 0.2438)?
**A.** 543 ± 13 kg/m3

**Q.** What about the Critical density ([1]; x1 = 0.4346) of the same compound?
**A.** 540 ± 13 kg/m3

**Q.** What about the Critical density ([1]; x1 = 0.5897) of the same compound?
**A.** 536 ± 12 kg/m3

**Q.** What about the Critical density ([1]; x1 = 0.7753) of the same compound?
**A.** 521 ± 12 kg/m3

**Q.** And the Critical density ([1]; x1 = 1)?
**A.** 491 ± 11 kg/m3

**Q.** Which Critical density ([1]; x2 = 0) does the source give for FC(C(F)(F)F)C(F)(F)F [1,1,1,2,3,3,3-heptafluoropropane] + COC(F)(F)C(F)(F)F here?
**A.** 598 ± 14 kg/m3
